pIC50: −log10 of the molar value. The source made the active and inactive calls. No cut-off for these calls is given here.
Experiments:
Type in all cases: functional, organism-based
Cryptosporidium parvum = assay: Antimicrobial activity against Cryptosporidium parvum by short-term in vitro culture assay
Toxoplasma gondii [1] = assay: Antimicrobial activity against Toxoplasma gondii RH containing alpha1-tubulin I235T mutation infected in HFF cells by plaque assay
Toxoplasma gondii [2] = assay: Antimicrobial activity against Toxoplasma gondii RH containing alpha1-tubulin I235V mutation infected in HFF cells by plaque assay
Toxoplasma gondii [3] = assay: Antimicrobial activity against Toxoplasma gondii RH containing alpha1-tubulin H28Q mutation infected in HFF cells by plaque assay
Toxoplasma gondii [4] = assay: Antimicrobial activity against Toxoplasma gondii RH containing alpha1-tubulin R243S mutation infected in HFF cells by plaque assay
Toxoplasma gondii [5] = assay: Antimicrobial activity against Toxoplasma gondii RH containing alpha1-tubulin T239I mutation infected in HFF cells by plaque assay
Toxoplasma gondii [6] = assay: Antimicrobial activity against Toxoplasma gondii RH containing alpha1-tubulin F24H mutation infected in HFF cells by plaque assay
Toxoplasma gondii [7] = assay: Antimicrobial activity against Toxoplasma gondii RH containing alpha1-tubulin R243C mutation infected in HFF cells by plaque assay
Toxoplasma gondii [8] = assay: Antimicrobial activity against Toxoplasma gondii RH containing alpha1-tubulin L136F mutation infected in HFF cells by plaque assay
Toxoplasma gondii [9] = assay: Antimicrobial activity against Toxoplasma gondii RH containing alpha1-tubulin I235L mutation infected in HFF cells by plaque assay
Toxoplasma gondii [10] = assay: Antimicrobial activity against Toxoplasma gondii RH infected in HFF cells by plaque assay
Toxoplasma gondii [11] = assay: Antimicrobial activity against Toxoplasma gondii RH containing alpha1-tubulin V4L mutation infected in HFF cells by plaque assay
Toxoplasma gondii [12] = assay: Antimicrobial activity against Toxoplasma gondii RH containing alpha1-tubulin S6I mutation infected in HFF cells by plaque assay
Toxoplasma gondii [13] = assay: Induction of parasite shape change Toxoplasma gondii RH infected in HFF cells at 0.25 uM by phase contrast microscopy
Toxoplasma gondii [14] = assay: Induction of parasite microtubule disruption Toxoplasma gondii RH infected in HFF cells by antitubulin antibody staining

CCC(CC)Nc1c([N+](=O)[O-])cc(C)c(C)c1[N+](=O)[O-] [PENDIMETHALIN]
pIC50 (Cryptosporidium parvum): 6.72 | pIC50 (Toxoplasma gondii [1]): 6.15 | pIC50 (Toxoplasma gondii [2]): 6.47 | pIC50 (Toxoplasma gondii [3]): 5.60 | pIC50 (Toxoplasma gondii [4]): 5.01 | pIC50 (Toxoplasma gondii [5]): 4.91 | pIC50 (Toxoplasma gondii [6]): 5.49 | pIC50 (Toxoplasma gondii [7]): 5.96 | pIC50 (Toxoplasma gondii [8]): 4.88 | pIC50 (Toxoplasma gondii [9]): 6.00 | pIC50 (Toxoplasma gondii [10]): 6.59 | pIC50 (Toxoplasma gondii [11]): 5.49 | pIC50 (Toxoplasma gondii [12]): 6.12

CCN(CC)c1c([N+](=O)[O-])cc(C(F)(F)F)c(N)c1[N+](=O)[O-] [DINITRAMINE]
pIC50 (Toxoplasma gondii [1]): 6.49 | pIC50 (Toxoplasma gondii [2]): 7.05 | Activity (Toxoplasma gondii [13]): Active | pIC50 (Toxoplasma gondii [3]): 6.29 | Activity (Toxoplasma gondii [14]): Active | pIC50 (Toxoplasma gondii [4]): 4.74 | pIC50 (Toxoplasma gondii [5]): 4.58 | pIC50 (Toxoplasma gondii [6]): 6.43 | pIC50 (Toxoplasma gondii [7]): 6.48 | pIC50 (Toxoplasma gondii [8]): 4.90 | pIC50 (Toxoplasma gondii [9]): 6.49 | pIC50 (Toxoplasma gondii [10]): 7.35 | pIC50 (Toxoplasma gondii [11]): 5.47 | pIC50 (Toxoplasma gondii [12]): 6.38

CCCN(CCC)c1c([N+](=O)[O-])cc(C(C)C)cc1[N+](=O)[O-] [ISOPROPALIN]
pIC50 (Toxoplasma gondii [1]): 5.37 | pIC50 (Toxoplasma gondii [2]): 5.66 | pIC50 (Toxoplasma gondii [3]): 5.47 | pIC50 (Toxoplasma gondii [4]): 4.87 | pIC50 (Toxoplasma gondii [5]): 4.82 | pIC50 (Toxoplasma gondii [6]): 5.46 | pIC50 (Toxoplasma gondii [7]): 5.40 | pIC50 (Toxoplasma gondii [8]): 4.82 | pIC50 (Toxoplasma gondii [9]): 5.66 | pIC50 (Toxoplasma gondii [10]): 6.06 | pIC50 (Toxoplasma gondii [11]): 5.15 | pIC50 (Toxoplasma gondii [12]): 5.66

C=C(C)CN(CC)c1c([N+](=O)[O-])cc(C(F)(F)F)cc1[N+](=O)[O-] [ETHALFLURALIN]
pIC50 (Toxoplasma gondii [1]): 5.77 | pIC50 (Toxoplasma gondii [2]): 6.19 | pIC50 (Toxoplasma gondii [3]): 5.38 | pIC50 (Toxoplasma gondii [4]): 4.71 | pIC50 (Toxoplasma gondii [5]): 4.54 | pIC50 (Toxoplasma gondii [6]): 5.68 | pIC50 (Toxoplasma gondii [7]): 5.80 | pIC50 (Toxoplasma gondii [8]): 4.62 | pIC50 (Toxoplasma gondii [9]): 5.85 | pIC50 (Toxoplasma gondii [10]): 6.59 | pIC50 (Toxoplasma gondii [11]): 4.87 | pIC50 (Toxoplasma gondii [12]): 5.60

CCCN(CCCl)c1c([N+](=O)[O-])cc(C(F)(F)F)cc1[N+](=O)[O-] [FLUCHLORALIN]
pIC50 (Cryptosporidium parvum): 5.74 | pIC50 (Toxoplasma gondii [1]): 5.68 | pIC50 (Toxoplasma gondii [2]): 6.11 | pIC50 (Toxoplasma gondii [3]): 5.80 | pIC50 (Toxoplasma gondii [4]): 4.75 | pIC50 (Toxoplasma gondii [5]): 4.69 | pIC50 (Toxoplasma gondii [6]): 5.49 | pIC50 (Toxoplasma gondii [7]): 5.66 | pIC50 (Toxoplasma gondii [8]): 4.65 | pIC50 (Toxoplasma gondii [9]): 6.00 | pIC50 (Toxoplasma gondii [10]): 6.48 | pIC50 (Toxoplasma gondii [11]): 5.10 | pIC50 (Toxoplasma gondii [12]): 5.72

CCCN(CCC)c1c([N+](=O)[O-])cc(S(N)(=O)=O)cc1[N+](=O)[O-] [ORYZALIN]
pIC50 (Cryptosporidium parvum): 6.15 | pIC50 (Toxoplasma gondii [1]): 5.26 | pIC50 (Toxoplasma gondii [2]): 5.64 | pIC50 (Toxoplasma gondii [3]): 5.85 | pIC50 (Toxoplasma gondii [4]): 4.80 | pIC50 (Toxoplasma gondii [5]): 4.60 | pIC50 (Toxoplasma gondii [6]): 5.90 | pIC50 (Toxoplasma gondii [7]): 5.66 | pIC50 (Toxoplasma gondii [8]): 4.56 | pIC50 (Toxoplasma gondii [9]): 5.80 | pIC50 (Toxoplasma gondii [10]): 6.60 | pIC50 (Toxoplasma gondii [11]): 4.83 | pIC50 (Toxoplasma gondii [12]): 5.82

COP(=S)(NC(C)C)Oc1ccc(C)cc1[N+](=O)[O-] (centres undefined) [AMIPROPHOS METHYL]
pIC50 (Toxoplasma gondii [1]): 5.15 | pIC50 (Toxoplasma gondii [2]): 5.82 | pIC50 (Toxoplasma gondii [3]): 5.29 | pIC50 (Toxoplasma gondii [4]): 4.72 | pIC50 (Toxoplasma gondii [5]): 4.55 | pIC50 (Toxoplasma gondii [6]): 5.00 | pIC50 (Toxoplasma gondii [7]): 5.23 | pIC50 (Toxoplasma gondii [8]): 4.55 | pIC50 (Toxoplasma gondii [9]): 5.41 | pIC50 (Toxoplasma gondii [10]): 6.00 | pIC50 (Toxoplasma gondii [11]): 5.68 | pIC50 (Toxoplasma gondii [12]): 5.48

CCC(C)Nc1c([N+](=O)[O-])cc(C(C)(C)C)cc1[N+](=O)[O-] (centres undefined) [BUTRALIN]
pIC50 (Toxoplasma gondii [1]): 5.13 | pIC50 (Toxoplasma gondii [2]): 5.42 | pIC50 (Toxoplasma gondii [3]): 4.99 | pIC50 (Toxoplasma gondii [4]): 4.60 | pIC50 (Toxoplasma gondii [5]): 4.54 | pIC50 (Toxoplasma gondii [6]): 4.62 | pIC50 (Toxoplasma gondii [7]): 4.89 | pIC50 (Toxoplasma gondii [8]): 4.49 | pIC50 (Toxoplasma gondii [9]): 5.04 | pIC50 (Toxoplasma gondii [10]): 5.74 | pIC50 (Toxoplasma gondii [11]): 4.49 | pIC50 (Toxoplasma gondii [12]): 5.35

CCCN(CCC)c1c([N+](=O)[O-])cc(S(=O)(=O)Nc2ccccc2)cc1[N+](=O)[O-]
pIC50 (Toxoplasma gondii [1]): 4.77 | pIC50 (Toxoplasma gondii [2]): 5.33 | pIC50 (Toxoplasma gondii [3]): 4.91 | pIC50 (Toxoplasma gondii [4]): 4.88 | pIC50 (Toxoplasma gondii [5]): 4.77 | pIC50 (Toxoplasma gondii [6]): 4.76 | pIC50 (Toxoplasma gondii [7]): 4.77 | pIC50 (Toxoplasma gondii [8]): 5.01 | pIC50 (Toxoplasma gondii [9]): 5.11 | pIC50 (Toxoplasma gondii [10]): 5.17 | pIC50 (Toxoplasma gondii [11]): 4.58 | pIC50 (Toxoplasma gondii [12]): 4.91

CCCCN(CC)c1c([N+](=O)[O-])cc(C(F)(F)F)cc1[N+](=O)[O-] [BENFLURALIN]
pIC50 (Toxoplasma gondii [1]): 5.03 | pIC50 (Toxoplasma gondii [2]): 5.43 | pIC50 (Toxoplasma gondii [3]): 4.82 | pIC50 (Toxoplasma gondii [4]): 4.66 | pIC50 (Toxoplasma gondii [5]): 4.64 | pIC50 (Toxoplasma gondii [6]): 4.80 | pIC50 (Toxoplasma gondii [7]): 4.92 | pIC50 (Toxoplasma gondii [8]): 4.56 | pIC50 (Toxoplasma gondii [9]): 5.34 | pIC50 (Toxoplasma gondii [10]): 5.82 | pIC50 (Toxoplasma gondii [11]): 4.73 | pIC50 (Toxoplasma gondii [12]): 5.13

CCCN(CCC)c1c([N+](=O)[O-])cc(C(F)(F)F)cc1[N+](=O)[O-] [TRIFLURALIN]
pIC50 (Cryptosporidium parvum): 5.71 | pIC50 (Toxoplasma gondii [1]): 5.29 | pIC50 (Toxoplasma gondii [2]): 5.74 | pIC50 (Toxoplasma gondii [3]): 5.28 | pIC50 (Toxoplasma gondii [4]): 4.63 | pIC50 (Toxoplasma gondii [5]): 4.63 | pIC50 (Toxoplasma gondii [6]): 5.38 | pIC50 (Toxoplasma gondii [7]): 5.39 | pIC50 (Toxoplasma gondii [8]): 4.57 | pIC50 (Toxoplasma gondii [9]): 5.72 | pIC50 (Toxoplasma gondii [10]): 6.28 | pIC50 (Toxoplasma gondii [11]): 4.86 | pIC50 (Toxoplasma gondii [12]): 5.55

CCCN(CCC)c1c([N+](=O)[O-])cc(S(C)(=O)=O)cc1[N+](=O)[O-] [NITRALIN]
pIC50 (Cryptosporidium parvum): 5.35 | pIC50 (Toxoplasma gondii [1]): 5.31 | pIC50 (Toxoplasma gondii [2]): 5.80 | pIC50 (Toxoplasma gondii [3]): 5.74 | pIC50 (Toxoplasma gondii [4]): 4.62 | pIC50 (Toxoplasma gondii [5]): 4.52 | pIC50 (Toxoplasma gondii [6]): 5.43 | pIC50 (Toxoplasma gondii [7]): 5.37 | pIC50 (Toxoplasma gondii [8]): 4.50 | pIC50 (Toxoplasma gondii [9]): 5.68 | pIC50 (Toxoplasma gondii [10]): 6.30 | pIC50 (Toxoplasma gondii [11]): 4.72 | pIC50 (Toxoplasma gondii [12]): 5.68

CCCN(CC1CC1)c1c([N+](=O)[O-])cc(C(F)(F)F)cc1[N+](=O)[O-] [PROFLURALIN]
pIC50 (Cryptosporidium parvum): 5.72 | pIC50 (Toxoplasma gondii [1]): 5.41 | pIC50 (Toxoplasma gondii [2]): 5.82 | pIC50 (Toxoplasma gondii [3]): 5.55 | pIC50 (Toxoplasma gondii [4]): 4.69 | pIC50 (Toxoplasma gondii [5]): 4.66 | pIC50 (Toxoplasma gondii [6]): 5.37 | pIC50 (Toxoplasma gondii [7]): 5.49 | pIC50 (Toxoplasma gondii [8]): 4.67 | pIC50 (Toxoplasma gondii [9]): 5.82 | pIC50 (Toxoplasma gondii [10]): 6.21 | pIC50 (Toxoplasma gondii [11]): 5.09 | pIC50 (Toxoplasma gondii [12]): 5.59

Reference: ChEMBL document CHEMBL1255423, “Dinitroaniline activity in Toxoplasma gondii expressing wild-type or mutant alpha-tubulin” (Antimicrob Agents Chemother, 2010)
